Measurements reported in ChEMBL document CHEMBL5303304, “EUbOPEN Chemogenomics Library - IncuCyte” (2023).

Legend:
Format in all cases: toxicity, cell-based
HEK-293T = test: Incucyte cell viability with HEK293T; conditions: human, 10 µM, compound concentration 10 uM
Fibroblast = test: Incucyte cell viability with human fibroblast; conditions: 10 µM, compound concentration 10 uM
U2OS = test: Incucyte cell viability with U2OS; conditions: human, 10 µM, compound concentration 10 uM
Also: unitless GR value; below 1 slowed growth and below 0 cell loss.

| Structure (SMILES) | Growth Rate (HEK-293T; 0 h, replicate number 1) | Growth Rate (Fibroblast; 0 h, replicate number 1) | Growth Rate (Fibroblast; 0 h, replicate number 2) | Growth Rate (U2OS; 6 h, replicate number 1) | Growth Rate (U2OS; 12 h, replicate number 1) | Growth Rate (U2OS; 18 h, replicate number 1) | Growth Rate (U2OS; 18 h, replicate number 2) | Growth Rate (U2OS; 24 h, replicate number 1) | Growth Rate (U2OS; 24 h, replicate number 2) | Growth Rate (HEK-293T; 6 h, replicate number 2) | Growth Rate (U2OS; 6 h, replicate number 2) | Growth Rate (U2OS; 12 h, replicate number 2) | Growth Rate (HEK-293T; 18 h, replicate number 2) | Growth Rate (Fibroblast; 6 h, replicate number 1) | Growth Rate (Fibroblast; 6 h, replicate number 2) | Growth Rate (Fibroblast; 12 h, replicate number 1) | Growth Rate (Fibroblast; 12 h, replicate number 2) | Growth Rate (Fibroblast; 24 h, replicate number 2) | Growth Rate (U2OS; 0 h, replicate number 1) | further results |
| --- | --- | --- | --- | --- | --- | --- | --- | --- | --- | --- | --- | --- | --- | --- | --- | --- | --- | --- | --- | --- |
| O=C(Nc1ccnc(NC(=O)C2CC2)c1)c1c(Cl)cccc1Cl | -0.99 | -0.14 | -0.81 | 0.46 | -0.05 | 0.81 | 0.93 | 0.98 | 0.84 |  |  |  |  |  |  |  |  |  |  |  |
| N#Cc1cccc(-c2c[nH]c3ncnc(N4CCOCC4)c23)c1 | -0.86 | -0.42 | -0.76 | 0.91 | 0.88 | 0.31 | 0.94 | 0.97 | 0.98 |  |  |  |  |  |  |  |  |  |  |  |
| Nc1nccc(-c2c(-c3ccc(F)cc3)ncn2C2CCN(Cc3ccon3)CC2)n1 | 0.09 |  | -0.11 | 0.99 |  |  | 0.72 |  | 0.66 | 0.91 | 0.8 | 0.75 |  |  |  |  |  |  |  |  |
| Cc1ccc(S(=O)(=O)O)cc1.Cn1cc(Nc2nccc(N3CC4CCC(C3)N4C(=O)[C@@H]3CC3(F)F)n2)cn1 | 0.13 | 0.69 | 0.55 | 0.03 | -0.28 |  | 0.84 |  | 0.8 | 0.93 | 0.95 | 0.96 | 0.98 | 0.01 | 0.12 | 0.8 | 0.69 |  |  | Growth Rate (Fibroblast; 18 h, replicate number 1): 0.4; Growth Rate (Fibroblast; 18 h, replicate number 2): 0.88; Growth Rate (Fibroblast; 24 h, replicate number 1): 1; Growth Rate (U2OS; 0 h, replicate number 2): 0.58 |
| COc1ccc(C(=O)N[C@H](C)c2cccc(C(=O)Nc3nc4c(s3)CN(C)CC4)c2)cc1C.O=C(O)C(F)(F)F | -0.36 | 0.21 | -0.72 |  |  |  | 0.97 |  | 0.88 |  |  |  |  |  |  |  |  |  |  |  |
| CC(=O)c1ccc2c(c1)/C(=C(/Nc1cccc(C#N)c1)c1ccc3c(c1)OCCO3)C(=O)N2 | -0.8 | 0.26 | -0.78 |  |  | 0.73 | 0.5 | 0.52 | 0.43 | 0.65 |  | 0.72 | -0.03 |  |  |  |  | 0.84 |  | Growth Rate (HEK-293T; 6 h, replicate number 1): 0.26; Growth Rate (HEK-293T; 12 h, replicate number 1): -0.22; Growth Rate (HEK-293T; 12 h, replicate number 2): 0.12; Growth Rate (HEK-293T; 18 h, replicate number 1): -0.15; Growth Rate (HEK-293T; 24 h, replicate number 1): -0.16; Growth Rate (HEK-293T; 24 h, replicate number 2): -0.02 |
| COc1cc2ncnc(N[C@H](C)c3ccccc3)c2cc1OC1CCN(S(C)(=O)=O)CC1.Cl | 0.37 | 0.4 |  | 0.77 | 0.89 | 0.8 |  | 0.74 |  |  |  |  |  |  | 0.39 |  | 0.61 |  | 0.65 | Growth Rate (HEK-293T; 0 h, replicate number 2): -0.04; Growth Rate (HEK-293T; 12 h, replicate number 2): 0.89 |
| COc1c(NC(=O)c2cc3cccc(Oc4ccnc(C(=O)N5CCN(C)CC5)c4)c3n2C)cc(C(C)(C)C)cc1NS(C)(=O)=O | 0.87 |  |  | 0.82 | 0.79 | 0.83 | 0.7 | 0.84 | 0.69 | 0.57 | 0.58 | 0.69 | 0.93 | 0.02 | 0.43 |  | 0.98 |  | -0.03 | Growth Rate (HEK-293T; 0 h, replicate number 2): -0.84; Growth Rate (HEK-293T; 6 h, replicate number 1): 0.93; Growth Rate (HEK-293T; 12 h, replicate number 2): 0.77; Growth Rate (U2OS; 0 h, replicate number 2): 0.57 |
| C[C@H](CCOc1cccc(CC(=O)O)c1)N(Cc1cccc(C(F)(F)F)c1Cl)CC(c1ccccc1)c1ccccc1.Cl | -0.43 | 0.93 |  | 0.93 |  | 0.83 |  | 0.93 |  |  | 1 |  | 1 | 0.72 | 0.01 | 0.72 | 0.55 | 0.52 | 0.53 | Growth Rate (Fibroblast; 18 h, replicate number 1): 0.83; Growth Rate (Fibroblast; 18 h, replicate number 2): 0.23; Growth Rate (Fibroblast; 24 h, replicate number 1): 0.64; Growth Rate (U2OS; 0 h, replicate number 2): -0.96 |
| COc1cc(-c2cn[nH]c2)ccc1C(=O)Nc1ccc2c(c1)CCNCC2.Cl | -0.67 | 0.68 | 0.05 |  | 0.82 | 0.75 | 0.59 | 0.87 | 0.63 |  | 0.77 | 0.78 |  |  |  |  |  |  |  |  |
| NC(=O)c1sc2nc(N3CCC(NC[C@H](O)c4ccccn4)CC3)cc(C(F)(F)F)c2c1N | -0.64 | 0.86 | 0.11 |  | 0.93 |  | 0.69 |  | -0.15 |  | -0.12 | 0.54 |  |  |  | 0.88 |  |  | 0.49 | Growth Rate (U2OS; 0 h, replicate number 2): 0.65 |
| CC(=O)O.NCCCc1c(C(=O)O)[nH]c2ccc(C(=O)Nc3ccccc3)cc12 | 0.19 | 0.6 |  | 0.76 | 0.87 | 0.92 |  | 0.93 |  |  |  |  | 0.93 | 0.95 | 0.33 |  | 0.82 | 0.77 | 0.53 | Growth Rate (HEK-293T; 0 h, replicate number 2): 0.53; Growth Rate (HEK-293T; 12 h, replicate number 2): 0.96; Growth Rate (Fibroblast; 18 h, replicate number 1): 0.95; Growth Rate (Fibroblast; 18 h, replicate number 2): 0.71 |
| Cc1ncc(C(=O)Nc2cc(C(C)(C)C)on2)cc1-n1cc(-c2cnn(C)c2C)nn1.Cl | -0.6 | 0.92 | 0.23 | 0.8 |  |  | 0.92 |  | 0.58 | 0.65 | 0.94 |  |  | 0.69 | 0.14 | 0.95 | 0.79 | 0.95 |  | Growth Rate (HEK-293T; 6 h, replicate number 1): 0.99 |
| COC(=O)Nc1nc2c(s1)-c1c(c(-c3cccnc3)nn1-c1ccc(C3(N(C)C)CC3)cc1)CC2.Cl.Cl | -1 | -0.29 | -1 |  |  |  | 0.74 |  | 0.64 |  |  | 0.96 |  |  |  |  |  |  | -0.99 |  |
| Cc1ccc(C(=O)Nc2cc(N3CCN(C)CC3)cc(C(F)(F)F)c2)cc1-n1cc(-c2cnn(C)c2C)nn1.Cl | -0.85 |  | 0.61 | 0.35 | 0.71 | 0.92 | 0.73 | 0.82 | 0.66 |  | 0.77 | 0.58 |  | 0.66 | -0.05 | 0.43 | 0.19 | 0.18 | 0.94 | Growth Rate (Fibroblast; 18 h, replicate number 1): 0.22; Growth Rate (Fibroblast; 18 h, replicate number 2): 0.15; Growth Rate (Fibroblast; 24 h, replicate number 1): 0.44 |
